Assay results taken from patent US20130095520A1, “METHOD FOR DETECTION OF UROTHELIAL CANCER” (NATIONAL UNIVERSITY CORPORATION KOCHI UNIVERSITY, priority 2010, published 2013).
Where a name gives a salt, the structure may show the parent alone.

Test system: cancer cells in the urine (urothelial / bladder cancer)
Test: Detection of PPIX fluorescence in cells of urine collected after oral ALA hydrochloride (fluorescence microscopy of urinary sediment)
Assay type: in vivo, human
Details: 1 g ALA hydrochloride oral in 50 ml orange juice; patient suspected of bladder cancer (about 60 kg); urine collected after about 4 hours; FIG. 1
Protocol: 1 g of ALA hydrochloride was dissolved in 50 ml of orange juice, and was given to a patient suspected of having bladder cancer (body weight about 60 kg). Urine was collected after about 4 hours, which was immediately centrifuged (3000 rpm/min., 15 min.) in a light shielded state, and was confirmed by microscopic visualization using sediments. The microscope used was OLYMPUS BX50CCD mounted with camera OLYMPUS DP70. The mirror set was Exciter: XF1076 400AF30 Dichroic:XF2007 475DCLP, Emitter: XF3090 585ALP (OMEGA OPTICAL), all of which being a standard fluorescence microscope system.
The detection method was performed in the same way as Example 1, except that the dosage amount was changed to 500 mg, which is the half amount of Example 1.

In the case of `NCC(=O)CCC(=O)O` [ALA hydrochloride, 5-aminolevulinic acid], the “PPIX fluorescence in cells separated from the urine” value is reported as “a clear PPIX fluorescence derived from cancer cell was observed”.
